target: T1, His-tagged full-length RSK2 (RPS6KA3) (Homo sapiens, UniProt P51812); test: RSK2 Omnia Assay for compound IC50 determination; assay type: biochemical; conditions: ATP 15 μM, n=2, read-out: Mean RSK2 Biochem IC50
T1 construct: His-tagged full-length RSK2 (RPS6KA3, Invitrogen PV3323); His; purchased Invitrogen PV3323
In short: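 Initial-rate slopes from continuous kinetic reads were fitted to a four-parameter equation for IC50 (n=2). Ki was then derived by Cheng-Prusoff assuming ATP-competitive inhibition. Reactions contained 15 μM ATP (Km 16.3 μM), 5 μM Omnia ST Peptide 6, and […] in 50 mM HEPES pH 7.5, 10 mM MgCl2, 1 mM DTT, 1% DMSO. Compounds spanned 11 threefold steps, […] final.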

T1 sequence (P51812 whole entry): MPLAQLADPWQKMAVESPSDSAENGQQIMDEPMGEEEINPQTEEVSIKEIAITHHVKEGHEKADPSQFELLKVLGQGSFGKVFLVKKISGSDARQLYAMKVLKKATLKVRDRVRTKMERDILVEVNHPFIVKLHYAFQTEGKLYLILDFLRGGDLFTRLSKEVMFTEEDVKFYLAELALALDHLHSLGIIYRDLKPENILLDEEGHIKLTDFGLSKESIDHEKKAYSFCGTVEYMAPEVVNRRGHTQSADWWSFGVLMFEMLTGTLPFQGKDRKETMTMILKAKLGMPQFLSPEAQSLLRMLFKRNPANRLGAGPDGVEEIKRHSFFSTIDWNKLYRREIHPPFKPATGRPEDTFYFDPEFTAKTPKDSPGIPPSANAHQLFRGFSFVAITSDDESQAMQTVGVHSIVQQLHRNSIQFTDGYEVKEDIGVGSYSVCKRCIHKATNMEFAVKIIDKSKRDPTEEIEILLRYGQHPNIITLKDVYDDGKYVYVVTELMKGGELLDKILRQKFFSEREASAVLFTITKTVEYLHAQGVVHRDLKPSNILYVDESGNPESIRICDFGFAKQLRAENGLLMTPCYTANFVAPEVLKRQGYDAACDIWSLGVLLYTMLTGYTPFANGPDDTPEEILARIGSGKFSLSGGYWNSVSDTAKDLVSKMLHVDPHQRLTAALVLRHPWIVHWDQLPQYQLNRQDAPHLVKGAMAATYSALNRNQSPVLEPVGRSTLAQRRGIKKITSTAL

IC50, ≤ 0.1 µM:
C[C@@H]1C(=O)N(c2cccc(C#N)c2)c2cnc(Nc3cc(F)c4[nH]ncc4c3)nc2N1C1CCOCC1 [compound 186, 3-[(7R)-2-[(7-fluoro-1H-indazol-5-yl)amino]-7-methyl-6-oxo-8-(tetrahydro-2H-pyran-4-yl)-7,8-dihydropteridin-5(6H)-yl]benzonitrile]
COc1ccc(N2C(=O)[C@@H](C)N(C3CCOCC3)c3nc(Nc4ccc5[nH]nc(F)c5c4)ncc32)cc1OC [compound 187, (7R)-5-(3,4-dimethoxyphenyl)-2-[(3-fluoro-1H-indazol-5-yl)amino]-7-methyl-8-(tetrahydro-2H-pyran-4-yl)-7,8-dihydropteridin-6(5H)-one]
COc1ccc(N2C(=O)[C@@H](C)N(C3CCOCC3)c3nc(Nc4cc(F)c5[nH]ncc5c4)ncc32)cc1OC [compound 188, (7R)-5-(3,4-dimethoxyphenyl)-2-[(7-fluoro-1H-indazol-5-yl)amino]-7-methyl-8-(tetrahydro-2H-pyran-4-yl)-7,8-dihydropteridin-6(5H)-one]
C[C@@H]1C(=O)N(c2cccc(F)c2)c2cnc(Nc3cc(F)c4[nH]ncc4c3)nc2N1C1CCOCC1 [compound 189, (7R)-2-[(7-fluoro-1H-indazol-5-yl)amino]-5-(3-fluorophenyl)-7-methyl-8-(tetrahydro-2H-pyran-4-yl)-7,8-dihydropteridin-6(5H)-one]
COc1ccc(N2C(=O)[C@@H](C)N(C3CCOCC3)c3nc(Nc4cc(F)c5[nH]ncc5c4)ncc32)cc1C#N [compound 190, 5-[(7R)-2-[(7-fluoro-1H-indazol-5-yl)amino]-7-methyl-6-oxo-8-(tetrahydro-2H-pyran-4-yl)-7,8-dihydropteridin-5(6H)-yl]-2-methoxybenzonitrile]
C[C@@H]1C(=O)N(c2cccnc2)c2cnc(Nc3cc(F)c4[nH]ncc4c3)nc2N1C1CCOCC1 [compound 191, (7R)-2-[(7-fluoro-1H-indazol-5-yl)amino]-7-methyl-5-(pyridin-3-yl)-8-(tetrahydro-2H-pyran-4-yl)-7,8-dihydropteridin-6(5H)-one]
COc1ccc(N2C(=O)[C@@H](C)N(C3CCOCC3)c3nc(Nc4cc(F)c5[nH]ncc5c4)ncc32)cn1 [compound 192, (7R)-2-[(7-fluoro-1H-indazol-5-yl)amino]-5-(6-methoxypyridin-3-yl)-7-methyl-8-(tetrahydro-2H-pyran-4-yl)-7,8-dihydropteridin-6(5H)-one]
C[C@@H]1C(=O)N(c2ccc(N3CCN(C)CC3)nc2)c2cnc(Nc3cc(F)c4[nH]ncc4c3)nc2N1C1CCOCC1 [compound 193, (7R)-2-[(7-fluoro-1H-indazol-5-yl)amino]-7-methyl-5-[6-(4-methylpiperazin-1-yl)pyridin-3-yl]-8-(tetrahydro-2H-pyran-4-yl)-7,8-dihydropteridin-6(5H)-one]
C[C@@H]1C(=O)N(c2cccc(C#N)c2)c2cnc(Nc3cc(F)c(O)c(F)c3)nc2N1C1CCOCC1 [compound 194, 3-[(7R)-2-[(3,5-difluoro-4-hydroxyphenyl)amino]-7-methyl-6-oxo-8-(tetrahydro-2H-pyran-4-yl)-7,8-dihydropteridin-5(6H)-yl]benzonitrile]
CCOc1ccc(N2C(=O)[C@@H](C)N(C3CCOCC3)c3nc(Nc4cc(F)c5[nH]ncc5c4)ncc32)cc1C#N [compound 195, 2-Ethoxy-5-[(7R)-2-[(7-fluoro-1H-indazol-5-yl)amino]-7-methyl-6-oxo-8-(tetrahydro-2H-pyran-4-yl)-7,8-dihydropteridin-5(6H)-yl]benzonitrile]
CC(C)Oc1ccc(N2C(=O)[C@@H](C)N(C3CCOCC3)c3nc(Nc4cc(F)c5[nH]ncc5c4)ncc32)cc1C#N [compound 196, 5-[(7R)-2-[(7-fluoro-1H-indazol-5-yl)amino]-7-methyl-6-oxo-8-(tetrahydro-2H-pyran-4-yl)-7,8-dihydropteridin-5(6H)-yl]-2-(propan-2-yloxy)benzonitrile]
COc1ccc(N2C(=O)[C@@H](C)N(C3CCOCC3)c3nc(Nc4ccc5[nH]c(=O)oc5c4)ncc32)cc1C#N [compound 197, 2-Methoxy-5-[(7R)-7-methyl-6-oxo-2-[(2-oxo-2,3-dihydro-1,3-benzoxazol-6-yl)amino]-8-(tetrahydro-2H-pyran-4-yl)-7,8-dihydropteridin-5(6H)-yl]benzonitrile]
CCOc1ccc(N2C(=O)[C@@H](C)N(C3CCOCC3)c3nc(Nc4ccc5[nH]c(=O)oc5c4)ncc32)cc1C#N [compound 198, 2-Ethoxy-5-[(7R)-7-methyl-6-oxo-2-[(2-oxo-2,3-dihydro-1,3-benzoxazol-6-yl)amino]-8-(tetrahydro-2H-pyran-4-yl)-7,8-dihydropteridin-5(6H)-yl]benzonitrile]
CC(C)Oc1ccc(N2C(=O)[C@@H](C)N(C3CCOCC3)c3nc(Nc4ccc5[nH]c(=O)oc5c4)ncc32)cc1C#N [compound 199, 5-[(7R)-7-methyl-6-oxo-2-[(2-oxo-2,3-dihydro-1,3-benzoxazol-6-yl)amino]-8-(tetrahydro-2H-pyran-4-yl)-7,8-dihydropteridin-5(6H)-yl]-2-(propan-2-yloxy)benzonitrile]
COc1ccc(N2C(=O)[C@@H](C)N(C3CCOCC3)c3nc(Nc4cnc5[nH]ncc5c4)ncc32)cc1C#N [compound 200, 2-methoxy-5-[(7R)-7-methyl-6-oxo-2-(1H-pyrazolo[3,4-b]pyridin-5-ylamino)-8-(tetrahydro-2H-pyran-4-yl)-7,8-dihydropteridin-5(6H)-yl]benzonitrile]
CCOc1ccc(N2C(=O)[C@@H](C)N(C3CCOCC3)c3nc(Nc4cnc5[nH]ncc5c4)ncc32)cc1C#N [compound 201, 2-Ethoxy-5-[(7R)-7-methyl-6-oxo-2-(1H-pyrazolo[3,4-b]pyridin-5-ylamino)-8-(tetrahydro-2H-pyran-4-yl)-7,8-dihydropteridin-5(6H)-yl]benzonitrile]
CC(C)Oc1ccc(N2C(=O)[C@@H](C)N(C3CCOCC3)c3nc(Nc4cnc5[nH]ncc5c4)ncc32)cc1C#N [compound 202, 5-[(7R)-7-methyl-6-oxo-2-(1H-pyrazolo[3,4-b]pyridin-5-ylamino)-8-(tetrahydro-2H-pyran-4-yl)-7,8-dihydropteridin-5(6H)-yl]-2-(propan-2-yloxy)benzonitrile]
COc1ccc(N2C(=O)[C@@H](C)N(C3CCOCC3)c3nc(Nc4cc(F)c5[nH]c(=O)oc5c4)ncc32)cc1C#N [compound 203, 5-[(7R)-2-[(4-fluoro-2-oxo-2,3-dihydro-1,3-benzoxazol-6-yl)amino]-7-methyl-6-oxo-8-(tetrahydro-2H-pyran-4-yl)-7,8-dihydropteridin-5(6H)-yl]-2-methoxybenzonitrile]
CCOc1ccc(N2C(=O)[C@@H](C)N(C3CCOCC3)c3nc(Nc4cc(F)c5[nH]c(=O)oc5c4)ncc32)cc1C#N [compound 204, 2-Ethoxy-5-[(7R)-2-[(4-fluoro-2-oxo-2,3-dihydro-1,3-benzoxazol-6-yl)amino]-7-methyl-6-oxo-8-(tetrahydro-2H-pyran-4-yl)-7,8-dihydropteridin-5(6H)-yl]benzonitrile]
CC(C)Oc1ccc(N2C(=O)[C@@H](C)N(C3CCOCC3)c3nc(Nc4cc(F)c5[nH]c(=O)oc5c4)ncc32)cc1C#N [compound 205, 5-[(7R)-2-[(4-fluoro-2-oxo-2,3-dihydro-1,3-benzoxazol-6-yl)amino]-7-methyl-6-oxo-8-(tetrahydro-2H-pyran-4-yl)-7,8-dihydropteridin-5(6H)-yl]-2-(propan-2-yloxy)benzonitrile]
C[C@@H]1C(=O)N(c2ccc(N3CCN(C)CC3)c(C#N)c2)c2cnc(Nc3cc(F)c4[nH]ncc4c3)nc2N1C1CCOCC1 [compound 206, 5-[(7R)-2-[(7-fluoro-1H-indazol-5-yl)amino]-7-methyl-6-oxo-8-(tetrahydro-2H-pyran-4-yl)-7,8-dihydropteridin-5(6H)-yl]-2-(4-methylpiperazin-1-yl)benzonitrile]
CO[C@H]1CC[C@@H](N2c3nc(Nc4cc(F)c5[nH]ncc5c4)ncc3N(c3cccc(C#N)c3)C(=O)[C@H]2C)CC1 [compound 223, 3-[(7R)-2-[(7-fluoro-1H-indazol-5-yl)amino]-8-(cis-4-methoxycyclohexyl)-7-methyl-6-oxo-7,8-dihydropteridin-5(6H)-yl]benzonitrile]
CO[C@H]1CC[C@H](N2c3nc(Nc4cc(F)c5[nH]ncc5c4)ncc3N(c3cccc(C#N)c3)C(=O)[C@H]2C)CC1 [compound 224, 3-[(7R)-2-[(7-fluoro-1H-indazol-5-yl)amino]-8-(trans-4-methoxycyclohexyl)-7-methyl-6-oxo-7,8-dihydropteridin-5(6H)-yl]benzonitrile]
COc1ccc(N2C(=O)[C@@H](C)N([C@H]3CC[C@H](OC)CC3)c3nc(Nc4cc(F)c5[nH]ncc5c4)ncc32)cc1OC [compound 225, (7R)-5-(3,4-dimethoxyphenyl)-2-[(7-fluoro-1H-indazol-5-yl)amino]-8-(trans-4-methoxycyclohexyl)-7-methyl-7,8-dihydropteridin-6(5H)-one]
COc1ccc(N2C(=O)[C@@H](C)N([C@H]3CC[C@@H](OC)CC3)c3nc(Nc4cc(F)c5[nH]ncc5c4)ncc32)cc1OC [compound 226, (7R)-5-(3,4-dimethoxyphenyl)-2-[(7-fluoro-1H-indazol-5-yl)amino]-8-(cis-4-methoxycyclohexyl)-7-methyl-7,8-dihydropteridin-6(5H)-one]

Reference: patent US9351974B2, “Substituted pteridinones for the treatment of cancer” (OSI Pharmaceuticals, LLC, priority 2011, dated 2016)
